For 48 compounds, glass transition temperature results are on record in the PolyMetriX glass transition set.

As for `*C(=O)Nc1cc(C(c2cc(C)c(C)c(NC(=O)c3ccc4c(c3)C(=O)N(c3cccc5c(N6C(=O)c7ccc(*)cc7C6=O)cccc35)C4=O)c2)(C(F)(F)F)C(F)(F)F)cc(C)c1C` (repeat unit), the glass transition temperature worked out at 250.00 °C.
`*C(=O)Nc1ccc(/N=N/c2ccc([N+](=O)[O-])cc2)c(NC(=O)c2ccc3c(c2)C(=O)N(c2c(C)cc(-c4cc(C)c(N5C(=O)c6ccc(*)cc6C5=O)c(C)c4)cc2C)C3=O)c1` (repeat unit) yielded a glass transition temperature of 278.00 °C.
`*C(=O)Nc1ccc(C(c2ccc(NC(=O)c3ccc4c(c3)C(=O)N(c3c(C)cc(-c5cc(C)c(N6C(=O)c7ccc(*)cc7C6=O)c(C)c5)cc3C)C4=O)cc2)(C(F)(F)F)C(F)(F)F)cc1` (repeat unit) returned a glass transition temperature of 318.00 °C.
Compound `*C(=O)Nc1ccc(Oc2c(C)cc(C(C)(C)c3cc(C)c(Oc4ccc(NC(=O)c5ccc6c(c5)C(=O)N(c5ccc(Oc7ccc(C8(c9ccc(Oc%10ccc(N%11C(=O)c%12ccc(*)cc%12C%11=O)cc%10)cc9)CC9CC8C8CCCC98)cc7)cc5)C6=O)cc4)c(C)c3)cc2C)cc1` (repeat unit) yielded a glass transition temperature of 276.00 °C.
As for `*C(=O)Oc1c(C)cc(C(c2cc(C)c(OC(=O)c3ccc4c(c3)C(=O)N(c3c(C)cc(-c5cc(C)c(N6C(=O)c7ccc(*)cc7C6=O)c(C)c5)cc3C)C4=O)c(C)c2)(C(F)(F)F)C(F)(F)F)cc1C` (repeat unit), the figure is 327.00 °C.
`*C(=O)Oc1ccc(C(c2ccc(OC(=O)c3ccc4c(c3)C(=O)N(c3c(C)cc(-c5cc(C)c(N6C(=O)c7ccc(*)cc7C6=O)c(C)c5)cc3C)C4=O)cc2)(C(F)(F)F)C(F)(F)F)cc1` (repeat unit): the glass transition temperature turned out to be 335.00 °C.
In turn, `*C(=O)c1ccc2c(c1)C(=O)N(c1cc(Oc3c(C)cc(-c4cc(C)c(Oc5cc(N6C(=O)c7ccc(*)cc7C6=O)cc(C(F)(F)F)c5)c(C)c4)cc3C)cc(C(F)(F)F)c1)C2=O` (repeat unit) registered a glass transition temperature of 265.40 °C.
`*C(=O)c1ccc2c(c1)C(=O)N(c1ccc(Cc3ccc(Cc4cccc(N5C(=O)c6ccc(*)cc6C5=O)c4)cc3)cc1)C2=O` (repeat unit) had a glass transition temperature of 317.00 °C.
As for `*C(=O)c1ccc2c(c1)C(=O)N(c1ccc(Cc3cccc(N4C(=O)c5ccc(*)cc5C4=O)c3)cc1)C2=O` (repeat unit), the figure is 281.00 °C; as for `*C(=O)c1ccc2c(c1)C(=O)N(c1ccc(Cc3ccccc3N3C(=O)c4ccc(*)cc4C3=O)cc1)C2=O` (repeat unit), 290.00 °C.
The same measure for `*CC(O)COc1c(C)cc(C(C)(C)c2cc(C)c(OCC(O)COc3c(C)cc(S(=O)(=O)c4cc(C)c(O*)c(C)c4)cc3C)c(C)c2)cc1C` (repeat unit): 145.00 °C; for `*CC(O)COc1c(C)cc(C(C)(C)c2cc(C)c(OCC(O)COc3ccc(S(=O)(=O)c4ccc(O*)cc4)cc3)c(C)c2)cc1C` (repeat unit): 145.00 °C.
`*CC(O)COc1ccc(C(C)(C)c2ccc(OCC(O)COc3c(C)cc(C(C)(C)c4cc(C)c(O*)c(C)c4)cc3C)cc2)cc1` (repeat unit) displayed a glass transition temperature of 100.00 °C.
Compound `*CC(O)COc1ccc(S(=O)(=O)c2ccc(OCC(O)COc3c(C)cc(S(=O)(=O)c4cc(C)c(O*)c(C)c4)cc3C)cc2)cc1` (repeat unit) registered a glass transition temperature of 145.00 °C.
As for `*CC/C(=C(/*)c1ccccc1)c1ccccc1` (repeat unit), the figure is 120.50 °C; as for `*OS(=O)(=O)c1cc(C)c(*)c(C)c1` (repeat unit), 153.00 °C.
As for `*O[Si](C)(C)CC[Si](C)(C)Oc1c(C)cc(-c2cc(C)c(*)c(C)c2)cc1C` (repeat unit), the figure is 55.00 °C; as for `*O[Si](C)(C)O[Si](C)(C)O[Si](C)(C)Oc1c(C)cc(-c2cc(C)c(*)c(C)c2)cc1C` (repeat unit), 14.00 °C; as for `*Oc1c(C)cc(-c2cc(C)c(OC(=O)CCCCCCCCC(*)=O)c(C)c2)cc1C` (repeat unit), 57.00 °C.
`*Oc1c(C)cc(-c2cc(C)c(Oc3ccc(C(=O)c4ccc(*)cc4)cc3)c(C)c2)cc1C` (repeat unit) had a glass transition temperature of 246.63 °C.
As for `*Oc1c(C)cc(C(C)(C)c2cc(C)c(OC(=O)CCCCCCCCC(*)=O)c(C)c2)cc1C` (repeat unit), the figure is 45.00 °C.
With `*Oc1c(C)cc(C(C)(C)c2cc(C)c(OC(=O)c3cccc(C(*)=O)c3)c(C)c2)cc1C` (repeat unit), the glass transition temperature stood at 187.00 °C.
The compound `*Oc1cc(C(C)(C)C)c(Oc2ccc(C(=O)Nc3c(C)cc(C(C)(C)c4cc(C)c(NC(=O)c5ccc(*)cc5)c(C)c4)cc3C)cc2)cc1C(C)(C)C` (repeat unit) showed a glass transition temperature of 295.00 °C.
`*Oc1ccc(S(=O)(=O)c2ccc(Oc3c(C)cc(-c4cc(C)c(*)c(C)c4)cc3C)cc2)cc1` (repeat unit) came in with a glass transition temperature of 280.20 °C.
Consider `*Oc1ccc(S(=O)(=O)c2cccc3c(S(=O)(=O)c4ccc(Oc5c(C)cc(-c6cc(C)c(*)c(C)c6)cc5C)cc4)cccc23)cc1` (repeat unit), for which the glass transition temperature turned out to be 262.00 °C.
With `*c1c(C)cc(-c2cc(C)c(N3C(=O)c4ccc(-c5ccc6c(c5)C(=O)N(*)C6=O)cc4C3=O)c(C)c2)cc1C` (repeat unit), the glass transition temperature is 285.00 °C.
As for `*c1c(C)cc(-c2cc(C)c(N3C(=O)c4ccc(S(=O)(=O)c5ccc6c(c5)C(=O)N(*)C6=O)cc4C3=O)c(C)c2)cc1C` (repeat unit), the figure is 290.00 °C; as for `*c1c(C)cc(C(c2cccnc2)c2cc(C)c(N3C(=O)CC(Nc4ccc(NC5CC(=O)N(*)C5=O)cc4)C3=O)c(C)c2)cc1C` (repeat unit), 231.00 °C; as for `*c1c(C)cc(C(c2cccnc2)c2cc(C)c(N3C(=O)CC(Nc4cccc(NC5CC(=O)N(*)C5=O)c4)C3=O)c(C)c2)cc1C` (repeat unit), 224.00 °C.
Take `*c1cc(C(=O)NCCCCCCCCCC)cc(N2C(=O)c3ccc(-c4ccc5c(c4)C(=O)N(*)C5=O)cc3C2=O)c1` (repeat unit): the glass transition temperature is 245.10 °C.
`*c1cc(C(=O)NCCCCCCCCCCCCCC)cc(N2C(=O)c3ccc(-c4ccc5c(c4)C(=O)N(*)C5=O)cc3C2=O)c1` (repeat unit) had a glass transition temperature of 247.60 °C.
The same measure for `*c1cc(C(=O)O)cc(N2C(=O)CC(C3CC4C(=O)N(*)C(=O)C4c4ccccc43)C2=O)c1` (repeat unit): 360.00 °C.
For the compound `*c1cc(C(=O)OCCCCC)cc(N2C(=O)CC(C3Cc4ccccc4C4C(=O)N(*)C(=O)C43)C2=O)c1` (repeat unit), the glass transition temperature is 219.00 °C.
With `*c1cc(C(=O)Oc2ccc(-c3ccc(O[Si](C)(C)C(C)(C)C)cc3)cc2)cc(N2C(=O)c3ccc(-c4ccc5c(c4)C(=O)N(*)C5=O)cc3C2=O)c1` (repeat unit), the glass transition temperature amounted to 230.00 °C.
Take `*c1cc(C(=O)Oc2cccc3cccnc23)c(*)s1` (repeat unit): the glass transition temperature was found to be 154.00 °C.
For `*c1cc(C(C(=O)OC)C(=O)OC)c(*)s1` (repeat unit), the glass transition temperature is -20.10 °C.
For `*c1cc(C(C)(C)c2ccc(O)cc2)cc(*)c1O` (repeat unit), the glass transition temperature was determined as 135.00 °C.
As for `*c1cc(C)c(-c2c(C)cc(N3C(=O)c4ccc(-c5ccc6c(c5)C(=O)N(*)C6=O)cc4C3=O)cc2C)c(C)c1` (repeat unit), the glass transition temperature is 280.00 °C.
`*c1cc(C)c(Cc2cc(C)c(N3C(=O)c4ccc(Oc5ccc(Oc6ccc7c(c6)C(=O)N(*)C7=O)cc5)cc4C3=O)cc2C)cc1C` (repeat unit): the glass transition temperature was determined as 278.00 °C.
`*c1cc(C)c(Oc2ccc(S(=O)(=O)c3ccc(Oc4cc(C)c(C5(*)OC(=O)c6ccccc65)cc4C)cc3)cc2)cc1C` (repeat unit) had a glass transition temperature of 269.00 °C.
The compound `*c1ccc(-c2ccc(N3C(=O)c4ccc(Oc5c(C)cc(C(C)(C)c6cc(C)c(Oc7ccc8c(c7)C(=O)N(*)C8=O)c(C)c6)cc5C)cc4C3=O)cc2C(F)(F)F)c(C(F)(F)F)c1` (repeat unit) displayed a glass transition temperature of 262.00 °C.
As to `*c1ccc(C(=O)Oc2c(C)cc(C(c3cccnc3)c3cc(C)c(OC(=O)c4ccc(N5C(=O)CC(Nc6ccc(Cc7ccc(NC8CC(=O)N(*)C8=O)cc7)cc6)C5=O)cc4)c(C)c3)cc2C)cc1` (repeat unit), the glass transition temperature is 186.00 °C.
In turn, `*c1ccc(Oc2c(C)cc(C(C)(C)c3cc(C)c(Oc4ccc(N5C(=O)c6ccc(Oc7ccc(C8(c9ccc(Oc%10ccc%11c(c%10)C(=O)N(*)C%11=O)cc9)CCC(c9ccccc9)CC8)cc7)cc6C5=O)cc4)c(C)c3)cc2C)cc1` (repeat unit) showed a glass transition temperature of 232.00 °C.
Regarding `*c1ccc(Oc2c(C)cc(C(c3cccnc3)c3cc(C)c(Oc4ccc(N5C(=O)CC(Nc6ccc(Cc7ccc(NC8CC(=O)N(*)C8=O)cc7)cc6)C5=O)cc4)c(C)c3)cc2C)cc1` (repeat unit), the glass transition temperature amounted to 201.00 °C.
For `*c1ccc(Oc2ccc(C3(c4ccc(Oc5ccc(N6C(=O)c7ccc(Oc8c(C)cc(C(C)(C)c9cc(C)c(Oc%10ccc%11c(c%10)C(=O)N(*)C%11=O)c(C)c9)cc8C)cc7C6=O)cc5)cc4)CC4CC3C3CCCC43)cc2)cc1` (repeat unit), the glass transition temperature is 262.00 °C.
On to `*c1ccc2c(c1)C(=O)N(c1c(C)cc(-c3cc(C)c(N4C(=O)c5ccc(C(*)(C(F)(F)F)C(F)(F)F)cc5C4=O)c4ccccc34)c3ccccc13)C2=O` (repeat unit), for which the glass transition temperature is 403.00 °C.
For `*c1ccc2c(c1)C(=O)N(c1c(C)cc(C3(c4cc(C)c(N5C(=O)c6ccc(C(*)(C(F)(F)F)C(F)(F)F)cc6C5=O)c(C)c4)c4ccccc4-c4ccccc43)cc1C)C2=O` (repeat unit), the glass transition temperature stood at 361.00 °C.
The same measure for `*c1ccc2c(c1)C(=O)N(c1cc(Oc3c(C)cc(-c4cc(C)c(Oc5cc(N6C(=O)c7ccc(C(*)(C(F)(F)F)C(F)(F)F)cc7C6=O)cc(C(F)(F)F)c5)c(C)c4)cc3C)cc(C(F)(F)F)c1)C2=O` (repeat unit): 264.80 °C.
